Drawing on patent US20180290977A1, “KDM4 INHIBITORS” (Albert-Ludwigs-University Freiburg, priority 2017, published 2018), this text covers IC50 for one molecule.

Each structure is given as a SMILES string. Like-named read-outs stand apart in the source and are kept apart here.

Holding throughout (test): KDM demethylase inhibition (IC50)
Common to all, as to type: biochemical

In experiment [1] the target is T1, KDM4B (Homo sapiens, UniProt O94953).
T1 sequence (O94953 1-1096): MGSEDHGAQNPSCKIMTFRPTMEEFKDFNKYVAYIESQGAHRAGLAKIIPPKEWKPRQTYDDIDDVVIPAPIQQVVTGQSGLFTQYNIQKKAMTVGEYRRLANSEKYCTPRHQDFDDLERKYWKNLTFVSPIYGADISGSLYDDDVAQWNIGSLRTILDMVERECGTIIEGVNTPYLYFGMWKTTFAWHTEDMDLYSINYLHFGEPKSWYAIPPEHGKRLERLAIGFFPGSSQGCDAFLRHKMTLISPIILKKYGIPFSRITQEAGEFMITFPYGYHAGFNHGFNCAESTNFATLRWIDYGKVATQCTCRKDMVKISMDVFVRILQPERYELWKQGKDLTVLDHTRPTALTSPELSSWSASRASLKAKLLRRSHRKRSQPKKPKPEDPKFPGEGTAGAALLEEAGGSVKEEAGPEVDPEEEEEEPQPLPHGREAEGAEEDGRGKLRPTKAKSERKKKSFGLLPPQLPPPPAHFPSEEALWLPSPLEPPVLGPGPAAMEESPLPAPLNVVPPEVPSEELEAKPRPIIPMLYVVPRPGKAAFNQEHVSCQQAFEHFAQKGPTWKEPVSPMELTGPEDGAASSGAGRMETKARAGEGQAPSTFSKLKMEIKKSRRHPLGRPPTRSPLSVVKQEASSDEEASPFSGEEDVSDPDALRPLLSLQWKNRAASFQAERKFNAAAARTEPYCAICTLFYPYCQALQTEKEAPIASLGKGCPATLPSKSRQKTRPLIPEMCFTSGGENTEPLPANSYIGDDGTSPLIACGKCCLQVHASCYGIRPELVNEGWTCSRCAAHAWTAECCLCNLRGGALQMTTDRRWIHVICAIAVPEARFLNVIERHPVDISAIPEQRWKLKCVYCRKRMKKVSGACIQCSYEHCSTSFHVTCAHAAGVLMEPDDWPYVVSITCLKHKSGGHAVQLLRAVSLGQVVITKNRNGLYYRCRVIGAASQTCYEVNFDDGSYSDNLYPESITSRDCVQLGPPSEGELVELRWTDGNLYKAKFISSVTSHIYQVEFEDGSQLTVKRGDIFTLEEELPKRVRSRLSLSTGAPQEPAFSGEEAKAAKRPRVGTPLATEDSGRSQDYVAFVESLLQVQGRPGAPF

Experiment [2] deals with T2, KDM4D (Homo sapiens, UniProt Q6B0I6).
T2 sequence (Q6B0I6 1-523): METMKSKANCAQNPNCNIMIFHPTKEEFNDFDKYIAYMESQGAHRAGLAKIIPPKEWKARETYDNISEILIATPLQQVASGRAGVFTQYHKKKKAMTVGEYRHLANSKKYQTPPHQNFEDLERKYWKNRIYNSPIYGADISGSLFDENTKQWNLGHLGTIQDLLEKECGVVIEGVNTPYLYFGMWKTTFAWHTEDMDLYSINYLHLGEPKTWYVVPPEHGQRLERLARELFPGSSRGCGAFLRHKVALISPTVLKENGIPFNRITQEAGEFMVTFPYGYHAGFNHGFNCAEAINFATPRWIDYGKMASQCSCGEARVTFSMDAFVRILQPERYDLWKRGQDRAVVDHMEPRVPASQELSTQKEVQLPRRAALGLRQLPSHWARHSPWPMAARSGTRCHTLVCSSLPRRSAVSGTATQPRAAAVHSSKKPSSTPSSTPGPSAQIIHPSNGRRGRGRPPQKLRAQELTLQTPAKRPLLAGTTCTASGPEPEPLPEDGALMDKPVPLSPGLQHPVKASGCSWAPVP

Experiment [3] addresses KDM6B (Homo sapiens, UniProt O15054).
For experiment [4], the target named is T3, KDM4A (Homo sapiens, UniProt O75164).
T3 sequence (O75164 1-1064): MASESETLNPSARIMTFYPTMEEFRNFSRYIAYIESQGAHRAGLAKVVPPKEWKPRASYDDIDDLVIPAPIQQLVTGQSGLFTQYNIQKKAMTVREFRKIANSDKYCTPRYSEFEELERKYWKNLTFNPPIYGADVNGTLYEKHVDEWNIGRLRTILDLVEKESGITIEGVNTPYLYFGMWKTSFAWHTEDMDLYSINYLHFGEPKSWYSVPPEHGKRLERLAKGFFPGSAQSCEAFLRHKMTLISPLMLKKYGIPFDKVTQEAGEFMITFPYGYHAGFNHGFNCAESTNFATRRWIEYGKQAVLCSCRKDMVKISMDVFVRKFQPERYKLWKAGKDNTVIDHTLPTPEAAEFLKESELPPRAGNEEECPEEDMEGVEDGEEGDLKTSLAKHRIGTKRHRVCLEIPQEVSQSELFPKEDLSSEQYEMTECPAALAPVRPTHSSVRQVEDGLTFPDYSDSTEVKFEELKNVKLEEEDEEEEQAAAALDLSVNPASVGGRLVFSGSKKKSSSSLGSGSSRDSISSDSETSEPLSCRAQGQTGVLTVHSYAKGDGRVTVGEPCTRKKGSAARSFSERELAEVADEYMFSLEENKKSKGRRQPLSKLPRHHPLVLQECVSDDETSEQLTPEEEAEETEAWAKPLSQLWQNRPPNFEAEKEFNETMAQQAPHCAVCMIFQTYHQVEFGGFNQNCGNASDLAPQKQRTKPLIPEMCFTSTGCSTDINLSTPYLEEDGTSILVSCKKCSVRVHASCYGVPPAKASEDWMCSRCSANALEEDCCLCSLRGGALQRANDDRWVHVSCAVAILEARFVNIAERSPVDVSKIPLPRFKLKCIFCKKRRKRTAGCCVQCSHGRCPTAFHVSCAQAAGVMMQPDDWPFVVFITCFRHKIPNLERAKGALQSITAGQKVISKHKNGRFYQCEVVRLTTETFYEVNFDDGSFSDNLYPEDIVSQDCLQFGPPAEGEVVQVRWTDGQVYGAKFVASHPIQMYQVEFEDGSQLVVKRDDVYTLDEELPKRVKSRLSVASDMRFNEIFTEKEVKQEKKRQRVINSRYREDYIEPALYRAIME

The mark [5] stands for this setting: read-out: IC50, demethylase activity.

One may read the IC50 as the concentration that inhibits the measured activity by half.

Sequence of KDM6B (O15054 whole entry): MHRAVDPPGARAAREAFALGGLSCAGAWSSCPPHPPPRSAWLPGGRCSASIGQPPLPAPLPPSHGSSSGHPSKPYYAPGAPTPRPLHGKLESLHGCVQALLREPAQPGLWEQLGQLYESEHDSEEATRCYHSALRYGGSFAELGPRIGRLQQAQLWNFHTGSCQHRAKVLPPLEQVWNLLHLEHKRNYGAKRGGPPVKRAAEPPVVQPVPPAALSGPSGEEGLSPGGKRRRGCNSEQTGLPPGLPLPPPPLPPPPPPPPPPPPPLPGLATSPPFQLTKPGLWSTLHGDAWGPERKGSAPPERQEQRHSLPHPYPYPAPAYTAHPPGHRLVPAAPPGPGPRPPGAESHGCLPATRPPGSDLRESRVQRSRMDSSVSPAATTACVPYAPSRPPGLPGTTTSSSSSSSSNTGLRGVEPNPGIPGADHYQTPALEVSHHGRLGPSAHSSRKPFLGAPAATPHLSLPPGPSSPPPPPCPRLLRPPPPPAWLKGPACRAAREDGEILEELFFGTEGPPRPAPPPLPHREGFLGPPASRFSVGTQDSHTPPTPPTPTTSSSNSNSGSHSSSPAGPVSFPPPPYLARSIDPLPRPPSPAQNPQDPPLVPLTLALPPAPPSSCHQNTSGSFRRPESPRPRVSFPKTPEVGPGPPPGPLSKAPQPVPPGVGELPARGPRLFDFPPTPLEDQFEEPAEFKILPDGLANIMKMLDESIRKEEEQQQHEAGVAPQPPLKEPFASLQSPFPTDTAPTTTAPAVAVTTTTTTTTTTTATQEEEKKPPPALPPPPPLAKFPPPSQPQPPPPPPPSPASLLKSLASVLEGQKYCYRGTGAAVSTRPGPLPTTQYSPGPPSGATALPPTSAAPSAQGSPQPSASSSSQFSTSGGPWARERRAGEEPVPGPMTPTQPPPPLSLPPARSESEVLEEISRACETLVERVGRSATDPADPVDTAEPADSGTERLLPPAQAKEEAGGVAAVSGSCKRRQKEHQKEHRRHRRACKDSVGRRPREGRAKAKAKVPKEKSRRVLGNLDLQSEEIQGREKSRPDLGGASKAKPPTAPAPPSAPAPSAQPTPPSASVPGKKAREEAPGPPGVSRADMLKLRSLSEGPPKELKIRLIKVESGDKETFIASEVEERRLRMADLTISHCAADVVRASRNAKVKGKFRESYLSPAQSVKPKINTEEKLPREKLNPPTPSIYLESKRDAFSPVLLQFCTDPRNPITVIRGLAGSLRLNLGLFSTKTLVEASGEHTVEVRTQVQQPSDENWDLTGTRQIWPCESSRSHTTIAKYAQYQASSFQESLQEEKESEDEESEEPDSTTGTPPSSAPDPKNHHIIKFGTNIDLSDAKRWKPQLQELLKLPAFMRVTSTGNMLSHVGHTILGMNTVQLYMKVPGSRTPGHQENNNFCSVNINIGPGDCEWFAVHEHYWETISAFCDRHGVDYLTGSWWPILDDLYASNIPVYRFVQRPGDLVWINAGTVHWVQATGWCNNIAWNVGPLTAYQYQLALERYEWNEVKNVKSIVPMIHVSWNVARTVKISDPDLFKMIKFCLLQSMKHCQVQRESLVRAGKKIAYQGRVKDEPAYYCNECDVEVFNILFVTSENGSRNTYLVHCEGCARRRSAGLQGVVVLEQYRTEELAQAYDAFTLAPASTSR

For the molecule `CN(c1ccccc1)c1ccc2c(c1)CCC[C@H]2CNc1cnccc1C(=O)O` [Compound I, 3-({[(1R)-6-[methyl(phenyl)amino]-1,2,3,4-tetrahydronaphthalen-1-yl]methyl}amino)pyridine-4-carboxylic Acid], the IC50 in experiment [1] (read-out: Compound I IC50) was 0.056 µM; in experiment [1] (setting [5]) it was less than 0.105 µM; in experiment [2] (read-out: Compound I IC50), 0.104 µM; in experiment [2] (setting [5]) it was less than 0.105 µM; in experiment [3], greater than 10 µM; in experiment [4] (read-out: Compound I IC50), 0.104 µM. The IC50 in experiment [4] (setting [5]) was less than 0.105 µM.
